# Data as given in patent publication US20180333491A1 (Sinotau Pharmaceuticals Group, priority 2015, published 2018).
# Marks after values point to notes of the source that are not given here.
# Assays:
# [1] = tested on: human pancreatic cancer tumor cells MIA-PaCa-2; assay: MIA-PaCa-2 subcutaneous model; details: for Tumor Volume (cm^3) Mean ± SEM: 34 days of treatment; for bodyweights: MIA-PaCa-2 model, over the treatment time; for Time of tumor volume changed significantly: days after first treatment; for Tumor weight (g) Mean ± SEM: end of experiment
# Description: (§7) The bodyweight and major/minor axis of the mice were measured twice a week, and the tumor volumes were calculated using the formula: Tumor volume=1/2×major axis×minor axis. […] “T” represents average tumor volume of the experimental group (cm^3), and “C” represents average tumor volume of the control group (cm^3). The animals were monitored at all times. The bodyweight and major/minor axis or mice were measured twice a week. When the experiments were concluded, mice were sacrificed and tumors were extracted and weighted.
# (§8) Tumor volumes were represented with average ±standard error. Data analysis was done using Spss16.0, One-Way ANOVA, LSD (homogeneity of variance) or Dunnett T3 (non-homogeneity of variance). […] P<0.05 represents significant difference.
# [2] = tested on: human colon cancer tumor cells Widr; assay: WiDr subcutaneous model; assay type: in vivo, nude mice; details: for Tumor Volume (cm^3) Mean ± SEM / TGI (Calculated using tumor volume): Day 27 after treatment; for TGI (Calculated using tumor volume): listed as HuTB006; for Tumor weight (g) Mean ± SEM: end of experiment
# Description: (§1) Tumor cells (i.e., MIA-PaCa-2, WiDr, H2122, colo205) were inoculated in nude mice's flank at 5×10^6 cells per mouse. The mice were grouped when the average volume of tumors reached about 100˜200 mm^3. “QW”=weekly dose. “Q3d”=dosed every third day. “BiW”=biweekly.
# (§2) The bodyweight and major/minor axis of the mice were measured twice a week, and the tumor volumes were calculated using the formula: Tumor volume=1/2×major axis[…]. […] “T” represents average tumor volume of the experimental group (cm^3), and “C” represents average tumor volume of the control group (cm^3). The animals were monitored at all times. The bodyweight and major/minor axis or mice were measured twice a week.
# (§3) Tumor volumes were represented with average ±standard error. […] P<0.05 represents significant difference.
# COLO205 = assay: Cytotoxicity on human tumor cell lines (ATPLite); assay type: cell-based
# Description: (§4) Eighteen human tumor cell lines were treated with 62.5, 125, 250, 500, or 1000 ng/mL HuCTB006 or different concentrations of chemotherapy drugs, which act as positive controls. […] The culture medium for SK-Hep-1, HepG2, HCT116, SW480, WiDr (1×NEAA), MIA-PaCa-2 (2.5% Horse serum) MDA-MB-231 (1 mM NaPyr, 1×MEM-NEAA, 1×MEM VITAMIN) was DMEM. The culture medium for COLO205, BXPC3 (2 mM glutamin, 10 mM HEPES), Panc2.03 (15FBS, 1 mM NaPyr, 1×MEM-NEAA, […], 10 mM HEPES), H2122, OVCAR3 (1 mM NaPyr, 10 ug/ml human insulin, 10 mM HEPES, 2.5 g/L glucose), Molt-4 (HEPES, 2.5 g/l glocose), Jurkat (HEPES, 2.5 g/l glocose) was RPMI-1640, the culture medium for SK-MES-1 was Eagle's MEM, the culture medium for 2-LMP and DY36T2 was IMEM, and the culture medium for SUM102 (5 ug/ml insulin) was F-12K. The cell viability was determined by ATPLite Assay Kit. If the IC50 value was lower than 62.5 ng/mL, the cells were treated with higher concentration of CTB006 in the second round of experiments to determine IC50 value.
# MDA-MB-231 = assay: Cytotoxicity on human tumor cell lines (ATPLite); assay type: cell-based
# Description: as §4
# BXPC3 = assay: Cytotoxicity on human tumor cell lines (ATPLite); assay type: cell-based
# Description: as §4
# Jurkat = assay: Cytotoxicity on human tumor cell lines (ATPLite); assay type: cell-based
# Description: as §4
# [3] = tested on: human colon cancer tumor cells Colo205; assay: Colo205 subcutaneous model; assay type: in vivo, nude mice; details: for Tumor Volume (cm^3) Mean ± SEM / TGI (Calculated using tumor volume): Day 28 after treatment; for Time of tumor volume changed significantly: days after first treatment; for Tumor weight (g) Mean ± SEM / TGI (Calculated using tumor weight): end of experiment
# Description: as §1, §2, §3
# [4] = tested on: human lung cancer tumor cells H2122; assay: H2122 subcutaneous model; details: for Tumor Volume (cm^3) Mean ± SEM: Day 38 after treatment; for Tumor weight (g) Mean ± SEM: end of experiment
# Description: as §7, §8
# [5] = target: T1, DcR2 (recombinant human TRAIL R4/TNFRSF10D) (Homo sapiens, UniProt Q9UBN6); assay: CLEIA binding specificity; details: DcR2-His coated; antibody 200, 40 and 8 ng/mL
# T1 construct: His; purchased Sino Biological Lot: LC06JU1502
# T1 sequence (Q9UBN6 56-386): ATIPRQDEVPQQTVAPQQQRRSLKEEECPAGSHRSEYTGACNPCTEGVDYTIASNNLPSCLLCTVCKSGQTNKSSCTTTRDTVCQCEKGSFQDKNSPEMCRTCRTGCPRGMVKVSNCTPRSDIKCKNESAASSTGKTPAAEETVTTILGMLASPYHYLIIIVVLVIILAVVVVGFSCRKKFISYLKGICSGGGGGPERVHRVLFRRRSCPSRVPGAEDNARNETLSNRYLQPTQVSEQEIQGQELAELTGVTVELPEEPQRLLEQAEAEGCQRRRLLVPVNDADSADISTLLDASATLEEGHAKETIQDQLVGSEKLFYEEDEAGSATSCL
# Description: (§5) The binding specificity of HuCTB006 was evaluated by chemiluminescent enzyme immunoassay (CLEIA).
# (§6) HuCTB006 was diluted into 200, 40 and 8 ng/mL and then added to the wells. After 1 hour incubation in 37° C., the plate was washed. The binding of HuCTB006 with immobilized antigens was detected with HRP labeled secondary antibody and a substrate solution.
# [6] = target: T2, DcR1 (recombinant human TRAIL R3/TNFRSF10C) (Homo sapiens, UniProt O14798); assay: CLEIA binding specificity; details: DcR1-His coated; antibody 200, 40 and 8 ng/mL
# T2 construct: His; purchased Novoprotein Science Lot: 0328670
# T2 sequence (O14798 26-236): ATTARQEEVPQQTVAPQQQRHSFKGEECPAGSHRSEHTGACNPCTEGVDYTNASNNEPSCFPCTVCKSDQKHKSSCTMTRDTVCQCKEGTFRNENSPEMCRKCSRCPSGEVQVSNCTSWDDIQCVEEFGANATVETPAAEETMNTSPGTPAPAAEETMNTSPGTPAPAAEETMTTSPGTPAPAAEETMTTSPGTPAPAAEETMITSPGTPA
# Description: as §5, §6
# [7] = target: T3, OPG (recombinant human osteroprotegerin/TNFRSF11B) (Homo sapiens, UniProt O00300); assay: CLEIA binding specificity; details: OPG-His coated; antibody 200, 40 and 8 ng/mL
# T3 construct: His; purchased Wuxi Pharmatech Co. Ltd Lot: 20120717
# T3 sequence (O00300 22-401): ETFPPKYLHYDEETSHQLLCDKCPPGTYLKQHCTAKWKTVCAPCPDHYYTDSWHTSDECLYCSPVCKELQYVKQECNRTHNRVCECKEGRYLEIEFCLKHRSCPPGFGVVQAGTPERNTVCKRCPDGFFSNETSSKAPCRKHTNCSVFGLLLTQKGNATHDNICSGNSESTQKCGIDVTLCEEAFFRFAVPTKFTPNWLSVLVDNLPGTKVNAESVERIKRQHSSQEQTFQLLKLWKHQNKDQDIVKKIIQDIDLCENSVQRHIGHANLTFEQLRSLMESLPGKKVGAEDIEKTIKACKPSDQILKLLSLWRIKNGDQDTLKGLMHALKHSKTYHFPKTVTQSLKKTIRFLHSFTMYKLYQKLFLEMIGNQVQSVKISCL
# Description: as §5, §6
# DR4 = target: T4, DR4 (Homo sapiens, UniProt O00220); assay: CLEIA binding specificity; details: DR4-His-EC coated; antibody 200, 40 and 8 ng/mL
# T4 construct: His; Lot: 090222-P; host or cells: E. coli
# Description: as §5, §6
# [8] = HuCTB006 0.6 mg/kg i.v., 0.6 mg/kg
# [9] = HuCTB006 1.8 mg/kg i.v., 1.8 mg/kg
# [10] = HuCTB006 5.4 mg/kg i.v., 5.4 mg/kg
compound,measurement,setting,value
"Nc1ccn([C@@H]2O[C@H](CO)[C@@H](O)C2(F)F)c(=O)n1 [Gemcitabine, reference compound]",Tumor Volume (cm^3) Mean ± SEM,[1]; Gemcitabine 60 mg/kg i.p.,1.60 ± 0.11 cm^3
same,bodyweights,[1],decreased significantly by the third dosing
same,tumor regression,[1]; first experiment,not found
same,tumor regression,[1]; repeated experiment,not found
"HuCTB006: Monospecific humanized chimeric monoclonal antibody directed to TRAIL-R2 receptor; heavy chain SEQ ID NO: 16, light chain SEQ ID NO: 14",Tumor Volume (cm^3) Mean ± SEM,[2]; HuCTB006 0.07 mg/kg i.v.,1.76 ± 0.18 cm^3
same,TGI (Calculated using tumor volume),[2]; HuCTB006 0.07 mg/kg i.v.,6.61%^1
same,Tumor weight (g) Mean ± SEM,[2]; HuCTB006 0.07 mg/kg i.v.,1.29 ± 0.18 g
same,Tumor Volume (cm^3) Mean ± SEM,[2]; HuCTB006 0.22 mg/kg i.v.,1.54 ± 0.18 cm^3
same,TGI (Calculated using tumor volume),[2]; HuCTB006 0.22 mg/kg i.v.,18.71%^ac
same,Tumor weight (g) Mean ± SEM,[2]; HuCTB006 0.22 mg/kg i.v.,1.16 ± 0.13 g
same,Tumor Volume (cm^3) Mean ± SEM,[2]; HuCTB006 0.67 mg/kg i.v.,0.96 ± 0.10 cm^3
same,Tumor weight (g) Mean ± SEM,[2]; HuCTB006 0.67 mg/kg i.v.,0.68 ± 0.08 g
same,Tumor Volume (cm^3) Mean ± SEM,[2]; HuCTB006 2 mg/kg i.v.,0.80 ± 0.11 cm^3
same,Tumor weight (g) Mean ± SEM,[2]; HuCTB006 2 mg/kg i.v.,0.53 ± 0.08 g
same,IC50,COLO205,~0.01 µg/mL
same,IC50,MDA-MB-231,~0.01 µg/mL
same,IC50,BXPC3,~0.01 µg/mL
same,IC50,Jurkat,~0.01 µg/mL
same,Tumor Volume (cm^3) Mean ± SEM,[1]; HuCTB006 0.2 mg/kg i.v.,1.76 ± 0.15 cm^3
same,Time of tumor volume changed significantly,[1]; HuCTB006 0.2 mg/kg i.v.,13 days
same,Tumor weight (g) Mean ± SEM,[1]; HuCTB006 0.2 mg/kg i.v.,0.79 ± 0.07 g
same,Tumor Volume (cm^3) Mean ± SEM,[1]; HuCTB006 0.6 mg/kg i.v.,1.27 ± 0.43 cm^3
same,Tumor weight (g) Mean ± SEM,[1]; HuCTB006 0.6 mg/kg i.v.,0.54 ± 0.21 g
same,Tumor Volume (cm^3) Mean ± SEM,[1]; HuCTB006 1 mg/kg i.v.,0.88 ± 0.35 cm^3
same,Tumor weight (g) Mean ± SEM,[1]; HuCTB006 1 mg/kg i.v.,0.37 ± 0.19 g
same,Tumor Volume (cm^3) Mean ± SEM,[1]; HuCTB006 10 mg/kg i.v.,0.76 ± 0.22 cm^3
same,Time of tumor volume changed significantly,[1]; HuCTB006 10 mg/kg i.v.,7^2 days
same,Tumor weight (g) Mean ± SEM,[1]; HuCTB006 10 mg/kg i.v.,0.19 ± 0.08 g
same,bodyweights,[1],slow increase
same,Tumor Volume (cm^3) Mean ± SEM,[3]; HuCTB006 0.2 mg/kg i.v.,1.24 ± 0.20 cm^3
same,Time of tumor volume changed significantly,[3]; HuCTB006 0.2 mg/kg i.v.,10 days
same,Tumor weight (g) Mean ± SEM,[3]; HuCTB006 0.2 mg/kg i.v.,0.84 ± 0.14 g
same,TGI (Calculated using tumor volume),[3]; HuCTB006 0.6 mg/kg i.v.,84.78%
same,Tumor Volume (cm^3) Mean ± SEM,[3]; HuCTB006 0.6 mg/kg i.v.,0.29 ± 0.13 cm^3
same,TGI (Calculated using tumor volume),[3]; [8],84.78%*
same,TGI (Calculated using tumor weight),[3]; HuCTB006 0.6 mg/kg i.v.,84.07%
same,Tumor weight (g) Mean ± SEM,[3]; HuCTB006 0.6 mg/kg i.v.,0.20 ± 0.10 g
same,TGI (Calculated using tumor weight),[3]; [8],84.07%*
same,TGI (Calculated using tumor volume),[3]; HuCTB006 1.8 mg/kg i.v.,80.07%
same,Tumor Volume (cm^3) Mean ± SEM,[3]; HuCTB006 1.8 mg/kg i.v.,0.38 ± 0.16 cm^3
same,TGI (Calculated using tumor volume),[3]; [9],80.07%*
same,TGI (Calculated using tumor weight),[3]; HuCTB006 1.8 mg/kg i.v.,81.78%
same,Tumor weight (g) Mean ± SEM,[3]; HuCTB006 1.8 mg/kg i.v.,0.23 ± 0.12 g
same,TGI (Calculated using tumor weight),[3]; [9],81.78%*
same,TGI (Calculated using tumor volume),[3]; HuCTB006 5.4 mg/kg i.v.,85.24%
same,Tumor Volume (cm^3) Mean ± SEM,[3]; HuCTB006 5.4 mg/kg i.v.,0.28 ± 0.10 cm^3
same,TGI (Calculated using tumor volume),[3]; [10],85.24%*
same,Time of tumor volume changed significantly,[3]; HuCTB006 5.4 mg/kg i.v.,7~10^2 days
same,TGI (Calculated using tumor weight),[3]; HuCTB006 5.4 mg/kg i.v.,88.15%
same,Tumor weight (g) Mean ± SEM,[3]; HuCTB006 5.4 mg/kg i.v.,0.15 ± 0.07 g
same,TGI (Calculated using tumor weight),[3]; [10],88.15%*
same,Tumor Volume (cm^3) Mean ± SEM,[4]; HuCTB006 0.2 mg/kg i.v.,1.85 ± 0.15 cm^3
same,Tumor weight (g) Mean ± SEM,[4]; HuCTB006 0.2 mg/kg i.v.,1.54 ± 0.09 g
same,Tumor Volume (cm^3) Mean ± SEM,[4]; HuCTB006 0.6 mg/kg i.v.,1.02 ± 0.31 cm^3
same,Tumor weight (g) Mean ± SEM,[4]; HuCTB006 0.6 mg/kg i.v.,0.89 ± 0.29 g
same,Tumor Volume (cm^3) Mean ± SEM,[4]; HuCTB006 1.8 mg/kg i.v.,0.16 ± 0.16 cm^3
same,Tumor weight (g) Mean ± SEM,[4]; HuCTB006 1.8 mg/kg i.v.,0.12 ± 0.12 g
same,Tumor Volume (cm^3) Mean ± SEM,[4]; HuCTB006 5.4 mg/kg i.v.,0.18 ± 0.18 cm^3
same,Tumor weight (g) Mean ± SEM,[4]; HuCTB006 5.4 mg/kg i.v.,0.19 ± 0.18 g
same,cross-reaction with coated antigen (CLEIA),[5],no cross-reaction
same,cross-reaction with coated antigen (CLEIA),[6],no cross-reaction
same,cross-reaction with coated antigen (CLEIA),[7],no cross-reaction
same,cross-reaction with coated antigen (CLEIA),DR4,no cross-reaction
